Among the data in DBAASP are MIC values, retold here.

Values after ≈ are worked out from the molar mass of the structure shown.

Common to all, as to assay: ≥ marks a high value that may be exact or a test limit, other limits are often not marked, values filed in µg/mL are converted to µM
Experiment [1] deals with Escherichia coli.
The subject of experiment [2] is Bacillus cereus.
For experiment [3], the system named is Staphylococcus aureus.
Experiment [4] has as its system Bacillus subtilis.
Experiment [5] has as its system Staphylococcus aureus ATCC 25923.
Experiment [6] relates to Candida albicans ATCC 2002.
The test system of experiment [7] is Escherichia coli ATCC 25922.
The test system of experiment [8] is Staphylococcus aureus ATCC 29213.
Experiment [9] concerns Acinetobacter baumannii.
The test system of experiment [10] is Salmonella enterica subsp. enterica serovar Typhimurium C77-31.
In experiment [11] the test system is Staphylococcus epidermidis ATCC 12228.
The test system of experiment [12] is Pseudomonas aeruginosa.
The subject of experiment [13] is Escherichia coli UB1005.
The test system of experiment [14] is Pseudomonas aeruginosa ATCC 27853.
Experiment [15] relates to Candida albicans ATCC 10231.

One may read the MIC as the lowest concentration found to suppress growth. A higher MIC goes with weaker potency. As to `CC[C@H](C)[C@H](NC(=O)[C@@H](NC(=O)[C@H](CS)NC(=O)[C@H](Cc1ccc(O)cc1)NC(=O)[C@@H](NC(=O)[C@H](C)NC(=O)[C@@H]1CCCN1C(=O)[C@H](Cc1ccccc1)NC(=O)[C@@H](NC(=O)[C@H](CCCCN)NC(=O)[C@H](CO)NC(=O)[C@H](C)NC(=O)[C@H](CC(C)C)NC(=O)[C@H](CCCCN)NC(=O)CNC(=O)[C@H](CC(C)C)NC(=O)[C@H](C)N)C(C)C)C(C)C)[C@@H](C)O)C(=O)N[C@@H](CO)C(=O)N[C@@H](CCCN=C(N)N)C(=O)N[C@@H](CCCCN)C(=O)O` [ALGKLASKVFPAVYCTISRK], the MIC in experiment [1] was 59.5 µM (≈ 128 µg/mL); in experiment [2], at least 119 µM.

As for `CC(C)C[C@H](NC(=O)[C@H](CCCCN)NC(=O)[C@H](Cc1ccccc1)NC(=O)[C@@H](NC(=O)[C@@H](NC(=O)CNC(=O)[C@H](CC(C)C)NC(=O)[C@@H](N)Cc1ccccc1)C(C)C)C(C)C)C(=O)N[C@H](C(=O)N[C@@H](CO)C(=O)N[C@@H](CCCCN)C(=O)N[C@H](C(=O)N[C@@H](Cc1ccccc1)C(=O)N1CCC[C@H]1C(=O)N[C@@H](C)C(=O)N[C@H](C(=O)N[C@@H](Cc1ccccc1)C(=O)NCC(=O)N[C@@H](CCCCN)C(=O)N[C@H](C(=O)O)C(C)C)C(C)C)C(C)C)C(C)C` [FLGVVFKLVSKVFPAVFGKV], the minimal inhibitory concentration (MIC) in experiment [1] was determined as 117 µM (≈ 256 µg/mL); in experiment [2], 7.33 µM (≈ 16 µg/mL); in [3], 3.67 µM (≈ 8 µg/mL).

In the case of `CC[C@H](C)[C@H](NC(=O)[C@H](C)NC(=O)[C@H](CCCN=C(N)N)NC(=O)[C@H](Cc1ccc(O)cc1)NC(=O)[C@H](CC(C)C)NC(=O)[C@H](CC(N)=O)NC(=O)[C@H](Cc1ccc(O)cc1)NC(=O)CNC(=O)[C@H](C)NC(=O)[C@@H](NC(=O)[C@@H](NC(=O)[C@@H](NC(=O)[C@H](CCCN=C(N)N)NC(=O)[C@@H](NC(=O)[C@@H](NC(=O)[C@@H](NC(=O)[C@@H]1CCCN1C(=O)[C@H](Cc1c[nH]c2ccccc12)NC(=O)[C@@H](N)Cc1ccccc1)C(C)C)C(C)C)[C@@H](C)CC)[C@@H](C)O)C(C)C)C(C)C)C(=O)N[C@@H](CCCCN)C(=O)N[C@@H](CCCCN)C(=O)N[C@@H](CCCCN)C(=O)O` [FWPVVIRTVVAGYNLYRAIKKK], the minimal inhibitory concentration (MIC) in [4] was 1.34 µM (≈ 3.52 µg/mL); in [5], 0.447 µM (≈ 1.17 µg/mL); in experiment [6], 0.335 µM (≈ 0.879 µg/mL); in experiment [7] it was 10.7 µM (≈ 28.1 µg/mL).

For the molecule `CC(C)C[C@H](NC(=O)CNC(=O)[C@H](Cc1ccccc1)NC(=O)[C@H](CC(C)C)NC(=O)[C@H](C)NC(=O)CN)C(=O)N[C@@H](C)C(=O)N[C@@H](CO)C(=O)N[C@@H](CCCCN)C(=O)N[C@H](C(=O)N[C@@H](Cc1ccccc1)C(=O)N1CCC[C@H]1C(=O)N[C@@H](C)C(=O)N[C@H](C(=O)N[C@@H](Cc1ccccc1)C(=O)NCC(=O)N[C@@H](C)C(=O)N[C@@H](Cc1ccccc1)C(=O)N[C@@H](CCCCN)C(=O)N[C@@H](CCCCN)C(=O)O)C(C)C)C(C)C` [GALFGLASKVFPAVFGAFKK], the minimum inhibitory concentration (MIC) in experiment [1] is 125 µM (≈ 256 µg/mL); in [2] it was at least 125 µM.

`CC[C@H](C)[C@H](NC(=O)[C@H](CC(C)C)NC(=O)CNC(=O)[C@@H](NC(=O)[C@@H](NC(=O)[C@H](C)NC(=O)[C@@H]1CCCN1C(=O)[C@@H](NC(=O)[C@@H](NC(=O)[C@H](CCCCN)NC(=O)[C@H](CO)NC(=O)[C@H](C)NC(=O)[C@H](CC(C)C)NC(=O)[C@H](CO)NC(=O)[C@H](Cc1ccccc1)NC(=O)[C@H](CC(C)C)NC(=O)[C@H](C)NC(=O)CN)C(C)C)C(C)C)C(C)C)[C@@H](C)CC)C(=O)N[C@@H](CCCCN)C(=O)N[C@@H](CCCCN)C(=O)O` [GALFSLASKVVPAVIGLIKK]: the minimum inhibitory concentration (MIC) in [1] was over 127 µM; in experiment [2], at least 127 µM.

For `CC[C@H](C)[C@H](NC(=O)[C@H](C)NC(=O)[C@H](CO)NC(=O)[C@H](Cc1ccccc1)NC(=O)[C@@H](NC(=O)[C@H](CO)NC(=O)[C@@H]1CCCN1C(=O)[C@@H](NC(=O)[C@@H](NC(=O)[C@H](CCCCN)NC(=O)[C@H](CO)NC(=O)[C@H](C)NC(=O)[C@@H](NC(=O)CNC(=O)[C@H](Cc1ccccc1)NC(=O)[C@@H](NC(=O)[C@H](C)NC(=O)CN)C(C)C)C(C)C)C(C)C)C(C)C)C(C)C)C(=O)N[C@@H](CCCCN)C(=O)N[C@@H](CCCCN)C(=O)O` [GAVFGVASKVVPSVFSAIKK], the minimum inhibitory concentration (MIC) in [1] was over 129 µM; in experiment [2], at least 129 µM.

`CC[C@H](C)[C@H](NC(=O)[C@H](CC(=O)O)NC(=O)[C@H](CCCCN)NC(=O)[C@@H](NC(=O)[C@H](CC(C)C)NC(=O)[C@H](CO)NC(=O)[C@H](CCSC)NC(=O)[C@H](CC(C)C)NC(=O)CN)C(C)C)C(=O)N[C@@H](C)C(=O)N[C@@H](CCCCN)C(=O)N[C@@H](CC(C)C)C(=O)N[C@@H](C)C(=O)N[C@@H](C)C(=O)N[C@@H](CCCCN)C(=O)N[C@@H](CCC(N)=O)C(=O)NCC(=O)N[C@@H](C)C(=O)N[C@@H](CCCCN)C(=O)N[C@@H](CCC(N)=O)C(=O)O` [GLMSLVKDIAKLAAKQGAKQ]: the figures for the MIC in [1] and in experiment [2] were 124 µM (≈ 256 µg/mL) and at least 124 µM, respectively.

Consider `CC(C)[C@H](NC(=O)[C@H](CCCN=C(N)N)NC(=O)[C@H](Cc1c[nH]c2ccccc12)NC(=O)[C@H](CCCN=C(N)N)NC(=O)[C@@H](NC(=O)[C@H](CCCN=C(N)N)NC(=O)[C@H](Cc1c[nH]c2ccccc12)NC(=O)[C@H](CCCN=C(N)N)NC(=O)[C@@H](NC(=O)[C@H](CCCN=C(N)N)NC(=O)[C@@H](N)Cc1c[nH]c2ccccc12)C(C)C)C(C)C)C(=O)N[C@@H](CCCN=C(N)N)C(N)=O` [WRVRWRVRWRVR], for which the MIC worked out at 1 µM (≈ 1.81 µg/mL) in experiment [8]; 2 µM (≈ 3.62 µg/mL) in experiment [9]; 4 µM (≈ 7.24 µg/mL) in experiment [10]; 2 µM (≈ 3.62 µg/mL) in [11]; 2 µM (≈ 3.62 µg/mL) in experiment [1]; 2 µM (≈ 3.62 µg/mL) in experiment [5]. For the same molecule, the MIC amounted to 4 µM (≈ 7.24 µg/mL) in experiment [12], 2 µM (≈ 3.62 µg/mL) in [13], 1 µM (≈ 1.81 µg/mL) in experiment [3] and 4 µM (≈ 7.24 µg/mL) in experiment [7].

Regarding `CC(C)C[C@H](NC(=O)[C@H](CCCCN)NC(=O)[C@@H]1CCCN1C(=O)[C@H](CC(C)C)NC(=O)[C@H](CC(C)C)NC(=O)CNC(=O)[C@H](CCCCN)NC(=O)[C@H](CC(C)C)NC(=O)[C@H](CCCCN)NC(=O)[C@@H]1CCCN1C(=O)[C@H](CC(C)C)NC(=O)[C@H](CC(C)C)NC(=O)[C@H](CC(C)C)NC(=O)[C@H](CCCCN)NC(=O)[C@H](CC(C)C)NC(=O)[C@H](CC(C)C)NC(=O)[C@H](CCCCN)NC(=O)[C@@H](N)Cc1ccc(O)cc1)C(N)=O` [YKLLKLLLPKLKGLLPKL], the MIC in experiment [8] turned out to be 5.93 µM (≈ 12.4 µg/mL); in experiment [14], 5.86 µM (≈ 12.2 µg/mL); in experiment [15], 40 µM (≈ 83.6 µg/mL).

Turning to `CC(C)C[C@H](NC(=O)[C@H](CCCCN)NC(=O)[C@H](CCC(=O)O)NC(=O)[C@H](CC(C)C)NC(=O)[C@H](CC(C)C)NC(=O)[C@H](C)NC(=O)[C@H](CCCCN)NC(=O)[C@H](CC(C)C)NC(=O)[C@H](CCCCN)NC(=O)[C@H](CC(C)C)NC(=O)[C@H](CC(C)C)NC(=O)[C@H](CC(C)C)NC(=O)[C@H](Cc1c[nH]c2ccccc12)NC(=O)[C@H](CCCCN)NC(=O)[C@H](CC(C)C)NC(=O)[C@H](CC(C)C)NC(=O)[C@H](CCCCN)NC(=O)[C@@H](N)Cc1ccc(O)cc1)C(N)=O` [YKLLKWLLLKLKALLEKL], the minimum inhibitory concentration (MIC) in experiment [8] is 38.1 µM (≈ 84.8 µg/mL); in experiment [14], 28.6 µM (≈ 63.6 µg/mL); in experiment [15], over 76.3 µM.
